Laboratory results reported in patent US10537567B2, “Kinase inhibitors for treatment of disease” (BioAxone BioSciences, Inc., priority 2017, dated 2020).
Entries after “also recorded” stand apart in the source; their conditions may differ.

How the values were obtained:
[1] = Microbead model of glaucoma in rats; format: in vivo, Sprague Dawley rat; details: ocular treatment vs vehicle-treated eyes
Procedure: The different markers of RGC dysfunction are examined in a rat model of glaucoma where latex microspheres are injected into the anterior chamber of the eye to block outflow through the TM. In Sprague Dawley rat RGC loss is 20%-30% over a 4-6 weeks period when 20 μL of beads are injected weekly. This severe model is used to start to determine the amount of API in the retina 1 hour after topical installation of the API/latanoprost combination. Rats are topically dosed with API/Latanoprost for a week after microbead injection, a time when IOP is elevated. The right eyes serve as non-glaucomatous controls.
BIII tubulin expression is decreased in RGCs in glaucoma (Soto et al. 2008 J Neurosci. 28(2): p. 548-561). Loss of BIII tubulin is a biomarker of early RGC degeneration. […] BIII tubulin is observed in radial sections, and RGCs identified by labeling with Brin3. For quantitative comparisons, control and treated radial cryostat sections are cut in the same block and mounted on the same slide, and labeled together with BIII isotype-specific antibodies.
ROCK activation is examined in the same microbead model of glaucoma in rats 4 weeks after daily topical dosing in rats with left and right eyes injected with beads. API alone or API+Latanoprost are delivered once daily by 15 μL eye drop instilled into the left eyes (glaucoma/treated) and right eyes left untreated (glaucoma/untreated). […]

cellular ROCK activity = assay: pMLC2 immunoblot dose-response in human trabecular meshwork cells; format: cell-based; details: serum starved TM cells, 1 hour treatment
Procedure: To quantify the inhibitory effect of the compounds the TM cells were serum starved and treated for 1 hour with the indicated compound concentration and then lysed and extracted for SDS-PAGE and immunoblotting for phosphorylated myosin light chain kinase 2 (pMLC2), which is a biomarker for cellular ROCK activity.

ROCK1 = ROCK1 (Homo sapiens, UniProt Q13464); assay: DiscoverX kinome screen; format: binding; parameters: are incubated with DNA-tagged kinase domains tagged; DNA tag; purchased DiscoverX; details: 10,000 nM API
Procedure: (§1) A 468-target kinome screen and a safety screen were carried out to examine the off-target profiles of different kinase inhibitors (DiscoverX, Freemont, Calif.). The kinome screen is a binding assay where API interference of kinase domain/substrate binding is assessed as percent of control. Less than 10% binding (or >90% binding inhibition) is most biologically relevant and considered as a ‘hit’. BA-2017 only had 7 off-target hits compared to BA-1049 and Netarsudil, which both had 11 hits (Table 1) (Studirvant et al. 2016 Bioorg Med Chem Lett. 26(10):2475-2480). […] Published data for Netarsudil were with 200 times less API. […] The NET activity likely helps to decrease IOP but might increase hyperemia, while the SERT activity might have long-term safety consequences (Costagliola et al. 2004 CNS drugs 18(8): p. 475-484).
(§2) In the kinome screen BA-2017 had fewer off-target hits (Table 1) than BA-1049. […] An interesting hit from the kinome screen was on Abl (Table 1), an oncogene that also regulates many cellular activities, including vascular leakage.

ROCK2 = ROCK2 (Homo sapiens, UniProt O75116); assay: DiscoverX kinome screen; format: binding; parameters: are incubated with DNA-tagged kinase domains tagged; DNA tag; purchased DiscoverX; details: 10,000 nM API
Procedure: as §1, §2

[2] = tested on: GPCRs, transporters, ion channels, nuclear receptors, non-kinase enzymes; assay: Safety screen of 88 targets; parameters: species or system human; details: agonistic or antagonistic
From the text: These targets include GPCRs, transporters, ion channels, nuclear receptors, non-kinase enzymes.

[3] = Total body irradiation (TBI) mouse model, GI histopathology; format: in vivo, mice; details: dosing for three days, 3 days after irradiation
Procedure: At day 0, TBI is carried out at a lethal dose of 8.0 Gy (Harlan mice) or 9.0 Gy (Coats mice)-doses that are expected to cause death in about 90% of animals within 30 days. […] Mice are monitored for survival up to day 30. During this period, mice were deprived of all supportive care, including antibiotics, to increase the stringency of the survival protocol. Survival is assessed with Kaplan-Meir curves. […] Mice are euthanized at 3 days and GI tissue is paraffin-embedded, sectioned and immunolabeled with rabbit anti-mouse leucine-rich-repeat-containing G-protein-coupled receptor 5 (LGR5), a GI stem cell marker that is expressed upon GI injury.

PKC Δ = biological target: T1, PKC Δ (Homo sapiens, UniProt Q05655); assay: DiscoverX kinome screen; format: binding; details: 10,000 nM API
T1 construct: are incubated with DNA-tagged kinase domains tagged; DNA tag; purchased DiscoverX
Procedure: as §1, §2

PKC ε = biological target: T2, PKC ε (Homo sapiens, UniProt Q02156); assay: DiscoverX kinome screen; format: binding; details: 10,000 nM API
T2 construct: are incubated with DNA-tagged kinase domains tagged; DNA tag; purchased DiscoverX
Procedure: as §1, §2

GRK1 = biological target: T3, GRK1 (Homo sapiens, UniProt Q15835); assay: DiscoverX kinome screen; format: binding
T3 construct: are incubated with DNA-tagged kinase domains tagged; DNA tag; purchased DiscoverX
T3 sequence (Q15835 190-455 limits assumed): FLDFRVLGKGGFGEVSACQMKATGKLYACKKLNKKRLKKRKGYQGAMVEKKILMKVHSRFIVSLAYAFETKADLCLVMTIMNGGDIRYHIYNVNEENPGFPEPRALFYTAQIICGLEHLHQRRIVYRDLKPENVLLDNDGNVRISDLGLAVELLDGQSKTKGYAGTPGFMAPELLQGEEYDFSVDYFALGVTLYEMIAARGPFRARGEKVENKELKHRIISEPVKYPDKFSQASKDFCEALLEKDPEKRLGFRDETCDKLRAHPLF
Procedure: as §1, §2

T1 sequence (Q05655 349-603 limits assumed, stated change not applied): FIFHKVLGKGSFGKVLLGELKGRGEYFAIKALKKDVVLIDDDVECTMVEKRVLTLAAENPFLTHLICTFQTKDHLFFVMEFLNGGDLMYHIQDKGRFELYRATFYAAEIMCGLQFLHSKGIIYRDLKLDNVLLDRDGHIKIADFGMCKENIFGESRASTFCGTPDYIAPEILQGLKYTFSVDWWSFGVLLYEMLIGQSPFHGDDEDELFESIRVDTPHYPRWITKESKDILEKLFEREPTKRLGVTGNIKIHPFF
Chain of ROCK2 (O75116 92-354 limits assumed): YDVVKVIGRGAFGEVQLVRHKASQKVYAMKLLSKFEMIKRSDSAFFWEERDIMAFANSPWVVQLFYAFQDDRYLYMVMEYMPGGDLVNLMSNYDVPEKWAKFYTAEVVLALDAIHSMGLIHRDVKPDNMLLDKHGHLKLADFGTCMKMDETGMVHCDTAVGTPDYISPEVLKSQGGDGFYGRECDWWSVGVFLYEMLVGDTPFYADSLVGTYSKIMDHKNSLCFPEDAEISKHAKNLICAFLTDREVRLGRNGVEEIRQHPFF
T2 sequence (Q02156 408-668 limits assumed): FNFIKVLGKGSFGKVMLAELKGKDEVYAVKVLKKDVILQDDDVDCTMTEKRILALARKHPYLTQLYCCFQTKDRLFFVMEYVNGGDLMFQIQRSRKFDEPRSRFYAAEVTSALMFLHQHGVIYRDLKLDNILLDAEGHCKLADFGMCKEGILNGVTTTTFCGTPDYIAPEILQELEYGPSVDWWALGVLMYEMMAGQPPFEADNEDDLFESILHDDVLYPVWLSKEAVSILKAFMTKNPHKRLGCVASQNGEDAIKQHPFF
Chain of ROCK1 (Q13464 76-338 limits assumed): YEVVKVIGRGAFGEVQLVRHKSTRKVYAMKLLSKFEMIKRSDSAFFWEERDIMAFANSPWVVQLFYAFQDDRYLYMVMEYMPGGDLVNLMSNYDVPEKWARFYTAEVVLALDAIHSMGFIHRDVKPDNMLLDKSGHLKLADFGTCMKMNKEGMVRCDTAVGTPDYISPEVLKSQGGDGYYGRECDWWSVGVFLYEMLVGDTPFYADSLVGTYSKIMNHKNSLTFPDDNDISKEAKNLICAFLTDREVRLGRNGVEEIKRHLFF

SMILES	BIII tubulin immunostaining in glaucoma eyes [1]	Reversal of ROCK activation (pMLC2) (cellular ROCK activity)	Kinome Screen % inhibition ROCK1 (ROCK1)	Kinome Screen % inhibition ROCK2 (ROCK2)	Off-target hits in safety screen [2]	Radiation-induced jejunal damage (LGR5 expression) [3]	Kinome Screen % inhibition PKC Δ (PKC Δ)	Kinome Screen % inhibition PKC ε (PKC ε)	Off-target activity on GRK1 (GRK1)
C[C@H](N)C1CCN(S(=O)(=O)c2cccc3cnccc23)CC1 [BA-1076]	prevents the loss of BIII tubulin immunostaining	showed potency to reverse ROCK activation	>99%	>99%	no significant off target hits were detected	mitigated radiation-induced jejunal damage	<70%	86%	does not have this off-target effect; also recorded: neither BA-1076 nor its metabolite, BA-2057, exhibits off-target inhibition of GRK1
C[C@H](N)C1CCN(S(=O)(=O)c2cccc3c(=O)[nH]ccc23)CC1 [BA-2057]	prevents the loss of BIII tubulin immunostaining	more potent than the parent BA-1076	>98%	>96%	no significant off target hits were detected	mitigated radiation-induced jejunal damage	<70%	<70%	neither BA-1076 nor its metabolite, BA-2057, exhibits off-target inhibition of GRK1
